Holding throughout (assay type): functional, cell-based
In test [1] the test system is KB. The test can be described thus: Cytotoxic activity against KB human nasopharyngeal carcinoma cells.
Test [2] has as its system DA-3 cell line. The test can be described thus: Cytotoxic activity against DA-3 mouse mammary adenocarcinoma cells.
Test [3] deals with HT-29. As to the kind of experiment: Cytotoxic activity against HT-29 human colon adenocarcinoma cells.
In test [4] the test system is B16-F10. The test can be described thus: Cytotoxic activity against B16F10 mouse melanoma cells.
The test system of test [5] is KB. As to the kind of experiment: Cytotoxic activity against KBV vinblastine resistant KB cells. The settings on record: Homo sapiens.

From ChEMBL document CHEMBL1128913, “Synthesis and in vitro cytotoxicity of cryptophycins and related analogs” (Bioorg Med Chem Lett, 1996) come the findings set out here.

For orientation: IC50 means the concentration at which inhibition is half-maximal. Low values mean higher potency, high ones lower potency. Take `COc1ccc(C[C@H]2NC(=O)/C=C/C[C@@H](C(O)CCc3ccccc3)OC(=O)[C@H](CC(C)C)OC(=O)[C@H](C)CNC2=O)cc1` (stereo not given in full): the IC50 in test [1], in test [2], in test [3], in test [4] and in test [5] was more than 10 nM in each case.
Take `COc1ccc(C[C@H]2NC(=O)/C=C/C[C@@H](C(=O)C#Cc3ccccc3)OC(=O)[C@H](CC(C)C)OC(=O)[C@@H](C)CNC2=O)cc1`: the half-inhibitory concentration (IC50) in test [1], in test [2], in test [3], in test [4] and in test [5] was more than 10 nM throughout.
Take `COc1ccc(C[C@H]2NC(=O)/C=C/C[C@@H](C(O)C#Cc3ccccc3)OC(=O)[C@H](CC(C)C)OC(=O)[C@@H](C)CNC2=O)cc1` (stereo not given in full): the IC50 in test [1], in test [2], in test [3], in test [4] and in test [5] was more than 10 nM in each case.
In the case of `COc1ccc(C[C@H]2NC(=O)/C=C/C[C@@H]([C@@](C)(O)/C=C\c3ccccc3)OC(=O)[C@H](CC(C)C)OC(=O)CCNC2=O)cc1`, the IC50 in test [1], in test [2], in test [3], in test [4] and in test [5] was more than 10 nM each time.
In the case of `COc1ccc(C[C@H]2NC(=O)/C=C/C[C@@H](CCCc3ccccc3)OC(=O)[C@H](CC(C)C)OC(=O)CCNC2=O)cc1Cl`, the IC50 in test [1], in test [2], in test [3], in test [4] and in test [5] was more than 10 nM in each case.
On to `COc1ccc(C[C@H]2NC(=O)/C=C/C[C@@H]([C@@H](C)/C=C/c3ccccc3)OC(=O)[C@H](CC(C)C)OC(=O)[C@H](C)CNC2=O)cc1`, for which the IC50 in test [1], in test [2], in test [3], in test [4] and in test [5] was more than 10 nM throughout.
Regarding `COc1ccc(C[C@H]2NC(=O)/C=C/C[C@@H](CC#Cc3ccccc3)OC(=O)[C@H](CC(C)C)OC(=O)[C@@H](C)CNC2=O)cc1`, the IC50 in test [1], in test [2], in test [3], in test [4] and in test [5] was more than 10 nM throughout.
`COc1ccc(C[C@H]2NC(=O)/C=C/C[C@@H](C(O)/C=C/c3ccccc3)OC(=O)[C@H](CC(C)C)OC(=O)[C@H](C)CNC2=O)cc1` (stereo not given in full): the IC50 in test [1], in test [2], in test [3], in test [4] and in test [5] was more than 10 nM each time.
As to `COc1ccc(C[C@H]2NC(=O)/C=C/C[C@@H]([C@H](C)[C@H]3O[C@@H]3c3ccccc3)OC(=O)[C@H](CC(C)C)OC(=O)[C@H](C)CNC2=O)cc1`, the IC50 in test [1] was 0.3 nM; in test [2], 0.2 nM; in test [3], 0.3 nM; in test [4], 0.3 nM; in test [5] it was 0.8 nM.
For `COc1ccc(C[C@H]2NC(=O)/C=C/C[C@@H]([C@@](C)(O)C#Cc3ccccc3)OC(=O)[C@H](CC(C)C)OC(=O)CCNC2=O)cc1`, the IC50 in test [1], in test [2], in test [3], in test [4] and in test [5] was more than 10 nM in each case.
Take `COc1ccc(C[C@H]2NC(=O)/C=C/C[C@@H](C/C=C/c3ccccc3)OC(=O)[C@H](CC(C)C)OC(=O)[C@H](C)CNC2=O)cc1Cl`: the IC50 in test [1], in test [2], in test [3], in test [4] and in test [5] was more than 10 nM throughout.
Take `COc1ccc(C[C@H]2NC(=O)/C=C/C[C@@H]([C@H](C)/C=C/c3ccccc3)OC(=O)[C@H](CC(C)C)OC(=O)[C@H](C)CNC2=O)cc1`: the IC50 in test [1], in test [2], in test [3], in test [4] and in test [5] was more than 10 nM each time.
On to `COc1ccc(C[C@H]2NC(=O)/C=C/C[C@@H](CCCc3ccccc3)OC(=O)[C@H](CC(C)C)OC(=O)CCNC2=O)cc1`, for which the IC50 in test [1], in test [2], in test [3], in test [4] and in test [5] was more than 10 nM each time.
`COc1ccc(C[C@H]2NC(=O)/C=C/C[C@@H](C(/C=C/c3ccccc3)OC(C)=O)OC(=O)[C@H](CC(C)C)OC(=O)[C@H](C)CNC2=O)cc1` (stereo not given in full): the IC50 in test [1], in test [2], in test [3], in test [4] and in test [5] was more than 10 nM in each case.
Turning to `COc1ccc(C[C@H]2NC(=O)/C=C/C[C@@H](C(=O)CCc3ccccc3)OC(=O)[C@H](CC(C)C)OC(=O)CCNC2=O)cc1`, the 50% inhibitory concentration (IC50) in test [1], in test [2], in test [3], in test [4] and in test [5] was more than 10 nM throughout.
`COc1ccc(C[C@H]2NC(=O)/C=C/C[C@@H](C(Br)C#Cc3ccccc3)OC(=O)[C@H](CC(C)C)OC(=O)[C@H](C)CNC2=O)cc1` (stereo not given in full): the IC50 in test [1], in test [2], in test [3], in test [4] and in test [5] was more than 10 nM each time.
For `COc1ccc(C[C@H]2NC(=O)/C=C/C[C@@H](C/C=C/c3ccccc3)OC(=O)[C@H](CC(C)C)OC(=O)[C@H](C)CNC2=O)cc1`, the IC50 in test [1], in test [2], in test [3], in test [4] and in test [5] was more than 10 nM in each case.
Turning to `COc1ccc(C[C@H]2NC(=O)/C=C/C[C@@H](C(=O)/C=C/c3ccccc3)OC(=O)[C@H](CC(C)C)OC(=O)[C@H](C)CNC2=O)cc1Cl`, the IC50 in test [1], in test [2], in test [3], in test [4] and in test [5] was more than 10 nM in each case.
Turning to `COc1ccc(C[C@H]2NC(=O)/C=C/C[C@@H](C(=O)C#Cc3ccccc3)OC(=O)[C@H](CC(C)C)OC(=O)[C@H](C)CNC2=O)cc1`, the IC50 in test [1], in test [2], in test [3], in test [4] and in test [5] was more than 10 nM each time.
Consider `COc1ccc(C[C@H]2NC(=O)/C=C/C[C@@H](C(O)/C=C/c3ccccc3)OC(=O)[C@H](CC(C)C)OC(=O)CCNC2=O)cc1` (stereo not given in full), for which the IC50 in test [1], in test [2], in test [3], in test [4] and in test [5] was more than 10 nM in each case.
In the case of `COc1ccc(C[C@H]2NC(=O)/C=C/C[C@@H](C(=O)/C=C/c3ccccc3)OC(=O)[C@H](CC(C)C)OC(=O)[C@H](C)CNC2=O)cc1`, the IC50 in test [1], in test [2], in test [3], in test [4] and in test [5] was more than 10 nM each time.
As to `COc1ccc(C[C@H]2NC(=O)/C=C/C[C@@H](C(=O)/C=C\c3ccccc3)OC(=O)[C@H](CC(C)C)OC(=O)CCNC2=O)cc1`, the IC50 in test [1], in test [2], in test [3], in test [4] and in test [5] was more than 10 nM throughout.
As for `COc1ccc(C[C@H]2NC(=O)/C=C/C[C@@H](C(=O)C#Cc3ccccc3)OC(=O)[C@H](CC(C)C)OC(=O)CCNC2=O)cc1`, the IC50 in test [1], in test [2], in test [3], in test [4] and in test [5] was more than 10 nM throughout.
For `COc1ccc(C[C@H]2NC(=O)/C=C/C[C@@H](C(=O)/C=C/c3ccccc3)OC(=O)[C@H](CC(C)C)OC(=O)CCNC2=O)cc1`, the IC50 in test [1], in test [2], in test [3], in test [4] and in test [5] was more than 10 nM throughout.
With `COc1ccc(C[C@H]2NC(=O)/C=C/C[C@@H](C(C#Cc3ccccc3)OS(C)(=O)=O)OC(=O)[C@H](CC(C)C)OC(=O)[C@@H](C)CNC2=O)cc1` (stereo not given in full), the IC50 in test [1], in test [2], in test [3], in test [4] and in test [5] was more than 10 nM each time.
As for `COc1ccc(C[C@H]2NC(=O)/C=C/C[C@@H](C(=O)[C@H]3O[C@@H]3c3ccccc3)OC(=O)[C@H](CC(C)C)OC(=O)[C@H](C)CNC2=O)cc1`, the IC50 in test [1], in test [2], in test [3], in test [4] and in test [5] was more than 10 nM in each case.
As to `COc1ccc(C[C@H]2NC(=O)/C=C/C[C@@H](C[C@H]3O[C@@H]3c3ccccc3)OC(=O)[C@H](CC(C)C)OC(=O)[C@H](C)CNC2=O)cc1`, the IC50 was 6 nM in test [1]; 3 nM in test [2]; 4 nM in test [3]; more than 10 nM in test [4]; more than 10 nM in test [5].
As to `COc1ccc(C[C@H]2NC(=O)/C=C/C[C@@H]([C@@H](C)[C@H]3O[C@@H]3c3ccccc3)OC(=O)[C@H](CC(C)C)OC(=O)[C@H](C)CNC2=O)cc1`, the half-inhibitory concentration (IC50) in test [1] is more than 10 nM; in test [2] it was more than 10 nM; in test [3] it was 3 nM; in test [4], more than 4 nM; in test [5] it was more than 10 nM.
Consider `COc1ccc(C[C@H]2NC(=O)/C=C/C[C@@H](C(C#Cc3ccccc3)OS(C)(=O)=O)OC(=O)[C@H](CC(C)C)OC(=O)[C@H](C)CNC2=O)cc1` (stereo not given in full), for which the IC50 in test [1], in test [2], in test [3], in test [4] and in test [5] was more than 10 nM throughout.
As to `COc1ccc(C[C@H]2NC(=O)/C=C/C[C@@H](C(O)CCc3ccccc3)OC(=O)[C@H](CC(C)C)OC(=O)CCNC2=O)cc1` (stereo not given in full), the IC50 in test [1], in test [2], in test [3], in test [4] and in test [5] was more than 10 nM each time.
